These results are taken from ChEMBL document CHEMBL3616373, “Identification of N-sulfonyl-tetrahydroquinolines as RORc inverse agonists” (Bioorg Med Chem Lett, 2015).

The structures appear in SMILES notation.

Test [1] addresses T1, Nuclear receptor ROR-gamma (Homo sapiens) (UniProt P51449).
T1 sequence (whole entry): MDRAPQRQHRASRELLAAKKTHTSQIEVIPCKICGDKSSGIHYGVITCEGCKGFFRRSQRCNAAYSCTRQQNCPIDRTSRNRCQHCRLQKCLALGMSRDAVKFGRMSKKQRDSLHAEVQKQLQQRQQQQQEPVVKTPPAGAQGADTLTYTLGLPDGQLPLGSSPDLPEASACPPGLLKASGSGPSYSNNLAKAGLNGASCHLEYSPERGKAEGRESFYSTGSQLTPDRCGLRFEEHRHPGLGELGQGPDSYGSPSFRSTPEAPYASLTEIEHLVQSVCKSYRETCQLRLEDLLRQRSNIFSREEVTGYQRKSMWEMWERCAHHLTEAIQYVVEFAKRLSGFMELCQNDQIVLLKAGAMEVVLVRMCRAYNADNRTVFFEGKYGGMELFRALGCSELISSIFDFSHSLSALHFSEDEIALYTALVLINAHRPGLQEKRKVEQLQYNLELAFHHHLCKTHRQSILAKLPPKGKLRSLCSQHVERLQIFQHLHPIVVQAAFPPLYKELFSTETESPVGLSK
Briefly: Inverse agonist activity at N-terminal 6xHis-tagged human RORc ligand binding domain (241 to 486) expressed in bacterial expression system assessed as inhibition of SRC1 co-activator peptide recruitment after 3 hrs by TR-FRET analysis relative to apo-RORc ligand binding domain. In general terms: TR-FRET usually uses a lanthanide donor and a delayed reading to cut background.

Test [2] addresses T2, Nuclear receptor ROR-gamma (Homo sapiens, UniProt P51449).
T2 sequence (P51449 whole entry): T1 sequence (whole entry)
The test is described as follows: Inverse agonist activity at N-terminal 6xHis-tagged human RORc ligand binding domain (241 to 486) expressed in bacterial expression system assessed as inhibition of SRC1 co-activator peptide recruitment after 3 hrs by TR-FRET analysis. The format is functional.

The target of test [3] is T2, Nuclear receptor ROR-gamma. The test is described as follows: Displacement of [3H2]-25-hydroxycholesterol from N-terminal 6xHis-tagged human RORc ligand binding domain (241 to 486) expressed in bacterial expression system after 3 hrs by scintillation counting analysis.

With `O=C(Nc1ccc2c(c1)N(S(=O)(=O)c1ccc(F)cc1)CCC2)c1ccno1`, the Efficacy in test [1] was -54%. Further, the concentration for a half-maximal effect (EC50) – broadly, the concentration giving half of the maximal effect – in test [2] was found to be 7400 nM.
On the same counts, the results for `O=S(=O)(Nc1ccc2c(c1)N(S(=O)(=O)c1ccc(F)cc1)CCC2)c1ccccc1` are -77% and 570 nM.
Consider `O=C(Nc1ccc2c(c1)N(S(=O)(=O)c1cccs1)CCC2)c1c(F)cccc1F`, for which the Efficacy in test [1] is -77%. Further, the EC50 in test [2] was 2100 nM. Besides, the IC50 – broadly, the concentration at which inhibition is half-maximal – in test [3] was found to be 1100 nM.
On the same counts, the results for `O=C(Nc1ccc2c(c1)N(S(=O)(=O)c1ccccc1)CCC2)c1c(F)cccc1F` are -91%, 230 nM and 180 nM.
As for `O=C(Nc1ccc2c(c1)N(S(=O)(=O)c1ccc(F)cc1)CCC2)c1ccc(F)cc1`, the Efficacy in test [1] is -75%. The concentration for a half-maximal effect (EC50) in test [2] is 1700 nM.
Turning to `CS(=O)(=O)N1CCCc2ccc(NC(=O)c3c(F)cccc3F)cc21`, the half-maximal effective concentration (EC50) in test [2] was over 10000 nM.
`O=C(Nc1ccc2c(c1)N(S(=O)(=O)c1ccc(F)cc1)CCCC2)c1c(F)cccc1F`: the Efficacy in test [1] was -96%. For the same compound, in test [2], the EC50 is 230 nM.
For the compound `O=C(Nc1ccc2c(c1)CCN2S(=O)(=O)c1ccc(F)cc1)c1c(F)cccc1F`, in test [2], the EC50 is over 10000 nM.
Still for that read-out and setting: in the case of `O=C(Nc1ccc2c(c1)N(S(=O)(=O)c1ccc(F)cc1)CCC2)c1cnccn1` it was over 10000 nM.
As for `Cc1ccc(S(=O)(=O)N2CCCc3ccc(NC(=O)c4c(F)cccc4F)cc32)cc1`, in test [1], the Efficacy is -95%. Moreover, the EC50 in test [2] turned out to be 150 nM. For the same compound, the IC50 in test [3] amounted to 110 nM.
In the case of `O=C(Nc1ccc2c(c1)N(S(=O)(=O)c1ccc(F)cc1)CCC2)C1CC1`, in test [1], the Efficacy was -63%. In addition, in test [2], the 50% effective concentration (EC50) is 3600 nM.
In the case of `O=C(Nc1ccc2c(c1)CCCCN2S(=O)(=O)c1ccc(F)cc1)c1c(F)cccc1F`, in test [2], the EC50 was over 10000 nM.
On to `O=C(Nc1ccc2c(c1)N(S(=O)(=O)c1ccc(F)cc1)CCC2)c1ccccc1F`, for which, in test [1], the Efficacy was -81%. The EC50 in test [2] is 420 nM.
For the compound `O=C(Nc1ccc2c(c1)N(S(=O)(=O)c1ccc(F)cc1)CCC2)c1ccncc1`, the Efficacy in test [1] was -58%. Moreover, the EC50 in test [2] amounted to 6800 nM.
On the same counts, the results for `Cc1ccccc1C(=O)Nc1ccc2c(c1)N(S(=O)(=O)c1ccc(F)cc1)CCC2` are -80% and 120 nM.
`O=C(Nc1ccc2c(c1)N(S(=O)(=O)c1ccc(F)cc1)CCC2)c1ccccc1`: the Efficacy in test [1] is -89%. Moreover, in test [2], the concentration for a half-maximal effect (EC50) was 550 nM.
Take `CC(=O)Nc1ccc2c(c1)N(S(=O)(=O)c1ccc(F)cc1)CCC2`: the half-maximal effective concentration (EC50) in test [2] is over 10000 nM.
On the same count and under the same terms, then `O=C(Nc1ccc2c(c1)CCCN2S(=O)(=O)c1ccc(F)cc1)c1c(F)cccc1F`, with over 10000 nM.
With `O=C(Nc1ccc2c(c1)N(S(=O)(=O)c1ccc(F)cc1)CCC2)c1cccc(F)c1`, the Efficacy in test [1] is -69%. The half-maximal effective concentration (EC50) in test [2] came out at 470 nM.
As to `O=C(Nc1ccc2c(c1)N(C(=O)c1ccccc1)CCC2)c1c(F)cccc1F`, in test [2], the EC50 was over 10000 nM.
